Assay results as given in patent US20140294849A1, “COMPOSITIONS AND USES” (GLAXOSMITHKLINE BIOLOGICALS SA, priority 2011, published 2014).

Assays:
CD11b+ monocytes = assay: In vivo uptake assay of Aβ42 after immunization or passive immunotherapy; set-up: species or system C57BL/6 mice; settings: Example 20
Protocol: Mice: C57BL/6 female mice were purchased from Charles River. […]
[…] At day 22, 5 μg per mouse of fluorescent HiLyte Fluor™ 488-labeled Amyloid β1-42 (Anaspec, Fremont, Calif.) was injected in the tail vein. […] Plasma of pooled blood was decanted and saved for measurement of antibody titres by ELISA. Red blood cell lysis was performed twice with Ammonium Chloride-based Buffer (Sigma, Steinheim, Germany) and cells were counted with the EasyCount™ System (Immunicon).
FACS analysis: 500,000 cells were aliquoted in a 96-well plate, washed once, incubated for 10 min. on ice in the presence of Rat anti-Mouse CD16/CD32 (clone 2.4G2—BD Fc Block™) and further stained for 30 min. with a combination of the following directly conjugated antibodies at their pre-determined optimal concentration: PE-Hamster anti-Mouse CD3 (clone 145-2C11), Rat anti-Mouse CD45R/B220 (clone RA3-6B2), Rat anti-Mouse Ly-6G (clone 1A8), Mouse anti-Mouse NK1.1 (clone PK136), APC-conjugated Rat anti-Mouse CD11b (clone M1/70), PE-Cy7-conjugated Hamster anti-Mouse CD11c (clone HL3), (all from BD PharMingen). Cells were finally washed twice and fixed for 15 min. with a 2% paraformaldehyde solution in PBS. FMOs controls were always included in the assays.
Samples were acquired on a flow cytometer (BD FACSCanto II) and data analyzed with the FACSDiva software (BD Biosciences).
Monocytes were identified by their Side/Forward scatter properties, excluding debris and gated as CD3-/CD45R/B220-/Ly-6G-/NK1.1-(Lineage-)/CD11b+ cells. Aβ uptake was assessed by reporting the percentage and Mean Fluorescence Intensity (GeoMean) of positive HiLyte Fluor™ 488 Aβ1-42 cells among gated monocytes.
Mice were passively immunized with a constant dose of anti Aβ monoclonal antibody (15 ug of 2E7)+different dose of immunomodulators (CRX601 or CRX601/AS03 or AS01B). […] Red blood cell lysis was performed twice with Ammonium Chloride-based Buffer (Sigma, Steinheim, Germany) and cells were counted with the EasyCount™ System (Immunicon). […]

[1] = tested on: Lineage-CD11b+ monocytes in peripheral blood; assay: Monocyte analysis and counting after adjuvant injection in mice; type: in vivo, C57BL/6 mice; settings: Example 12, single i.m. injection
Protocol: (§1) 24-Hours after injection of the TLR adjuvants, peripheral blood was drawn from C57BL/6 mice via cardiac puncture with lithium-heparin as anticoagulant. Red blood cell lysis was performed twice on pooled blood with Ammonium Chloride-based Buffer (Sigma, Steinheim, Germany) and cells were counted with the EasyCount™ System (Immunicon). […] Cells were finally washed three times and fixed for 15 min. with a 2% paraformaldehyde solution in PBS. Fluorescence minus one (FMO) controls were always included in the assays for fluorescent compensation setting. Samples were acquired on a flow cytometer (BD FACSCanto II) and data analyzed with the FACSDiva software (BD Biosciences). Monocytes were identified by their Side/Forward scatter properties and gated as CD3-/CD45R/B220-/Ly-6G-/NK1.1-(Lineage-)/CD11b+ cells. CD11b+ monocyte frequency was reported as a percentage of the total cells excluding debris.
as §1, with “24 hours” for “24-Hours”, “each immunomodulator,” for “the TLR adjuvants,”, “min” for “min.”, “monocytes” for “monocyte”
Cells were finally washed twice and fixed for 15 min. with a 2% paraformaldehyde solution in PBS. FMOs controls were always included in the assays. Samples were acquired on a flow cytometer (BD FACSCanto II) and data analyzed with the FACSDiva software (BD Biosciences). Monocytes were identified and counted by their Side/Forward scatter properties, excluding debris and gated as CD3-/CD45R/B220-/Ly-6G-/NK1.1-(Lineage-)/CD11 b+ cells.

With `CCCCCCCCCCC[C@H](CC(=O)N[C@H]1[C@H](OC[C@H](NC(=O)C[C@@H](CCCCCCCCCCC)OCCCCCCCCCC)C(=O)O)O[C@H](CO)[C@@H](OP(=O)(O)O)[C@@H]1OC(=O)C[C@@H](CCCCCCCCCCC)OCCCCCCCCCC)OCCCCCCCCCC` [CRX601] the “antibody-mediated Aβ uptake when combined with AS03 emulsion” value (CD11b+ monocytes; CRX601 20 ug with AS03) was “partially quenched”, the “antibody-mediated Aβ uptake” value (CD11b+ monocytes; CRX601 at 20 ug single i.m., 15 ug of 2E7, 24 hrs) was “highest Aβ uptake” and the “dose dependence of antibody-mediated Aβ uptake” value (CD11b+ monocytes; different doses, constant 2E7) was “Dose-response observed”. The “monocyte effect at 20 μg dose” value [1] was “down modulated”, the “dose of maximum monocyte response” value ([1]; 0.2 to 20 ug/mouse) was 10 µg and the “dose enough to trigger an increase of the monocyte count” value ([1]; 24 hrs, compared to PBS) was 1 µg.
